Legend:
Type in all cases: in vivo
[1] = tested on: pest eggs of Tetranychus cinnabarinus; assay: Effect on hatching of pest eggs of Tetranychus cinnabarinus, leaf disc method; details: for inhibitory effect on the hatching of pest eggs of Tetranychus cinnabarinus (in words): 1 ppm; for Hatching rate (%): 7 days after insecticide delivery
Procedure, shortened: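 Adult female mites laid eggs on 2.0 cm Vicia faba leaf discs for up to 36 h; discs with counted eggs were dipped 10 s in compound solution or water, then kept moist. Hatched eggs were counted 7 days after treatment and control effect was calculated by formula.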

eggs of Aleyrodidae = assay: Effect on hatching of eggs of Aleyrodidae, leaf disc method; details: 10 ppm; for Hatching rate (%), Replicate 1 / Hatching rate (%), Replicate 2 / Hatching rate (%), Replicate 3 / Number of hatched larvae 5 days after insecticide delivery, Replicate 1 / Number of hatched larvae 5 days after insecticide delivery, Replicate 2 / Number of hatched larvae 5 days after insecticide delivery, Replicate 3: Aleyrodidae eggs; for Hatching rate (%), Replicate 1 / Hatching rate (%), Replicate 2 / Hatching rate (%), Replicate 3: 5 days after delivery; for Number of hatched larvae 5 days after insecticide delivery, Replicate 1 / Number of hatched larvae 5 days after insecticide delivery, Replicate 2 / Number of hatched larvae 5 days after insecticide delivery, Replicate 3: leaf disc
Procedure, shortened: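 Inhibition of Aleyrodidae egg hatching was tested with a leaf disc method at 10 ppm. Egg numbers on each disc were counted under a microscope before treatment. Discs bearing eggs were soaked for 10 seconds in clear water or test solution, removed, and kept under moist conditions. Hatching was checked five days after insecticide delivery and hatched larvae were counted.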

[2] = tested on: eggs of Harmonia axyridis; assay: Effect on hatching of eggs of Harmonia axyridis, egg card immersion; details: 100 ppm; for Number of hatched larvae 4 days after insecticide delivery, Replicate 1 / Number of hatched larvae 4 days after insecticide delivery, Replicate 2 / Number of hatched larvae 4 days after insecticide delivery, Replicate 3: Harmonia axyridis egg cards, immersed 30 seconds; for Hatching rate (%), Replicate 1 / Hatching rate (%), Replicate 2 / Hatching rate (%), Replicate 3: Harmonia axyridis eggs, 4 days after delivery
Procedure, shortened: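 Egg cards (~20 eggs each) dipped 30 s in 100 ppm insecticide, air dried and kept moist at 27° C; 5 cards per treatment, 3 replicates. Hatching assessed 4 days after treatment against pre-treatment egg counts, and control effect calculated by formula.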

Row | SMILES | inhibitory effect on the hatching of pest eggs of Tetranychus cinnabarinus (in words) [1] | inhibitory activity on the hatching of eggs of Aleyrodidae (in words) (eggs of Aleyrodidae) | Hatching rate (%), Replicate 1 (eggs of Aleyrodidae) [%] | Hatching rate (%), Replicate 2 (eggs of Aleyrodidae) [%] | Hatching rate (%), Replicate 3 (eggs of Aleyrodidae) [%] | Number of hatched larvae 5 days after insecticide delivery, Replicate 1 (eggs of Aleyrodidae) | Number of hatched larvae 5 days after insecticide delivery, Replicate 2 (eggs of Aleyrodidae) | Number of hatched larvae 5 days after insecticide delivery, Replicate 3 (eggs of Aleyrodidae) | inhibitory activity on the hatching of eggs of Harmonia axyridis (in words) [2] | Number of hatched larvae 4 days after insecticide delivery, Replicate 1 [2] | Number of hatched larvae 4 days after insecticide delivery, Replicate 2 [2] | Number of hatched larvae 4 days after insecticide delivery, Replicate 3 [2] | Hatching rate (%), Replicate 1 [2] [%] | Hatching rate (%), Replicate 2 [2] [%] | Hatching rate (%), Replicate 3 [2] [%] | Number of hatched larvae 7 days after insecticide delivery ([1]; 0.5 mg/L, Replicate 1) | Hatching rate (%) ([1]; 0.25 mg/L, Replicate 1) | Hatching rate (%) ([1]; 0.25 mg/L, Replicate 2) | Number of hatched larvae 7 days after insecticide delivery ([1]; 0.25 mg/L, Replicate 1) | Number of hatched larvae 7 days after insecticide delivery ([1]; 0.25 mg/L, Replicate 2) | other results
1 | CC(C)(COc1ccc(Cl)cc1Cl)OS(=O)OCCF (stereo not shown) [Compound 10] | excellent inhibitory effects | strong inhibitory activities | 0.76 | 0.00 | 1.61 | 1 | 0 | 2 | strong inhibitory activities | 4 | 3 | 7 | 4.04 | 3.85 | 5.56 |  |  |  |  |  | 
2 | CC(C)(COS(=O)OCCF)Oc1ccc(Cl)cc1Cl (stereo not shown) [Compound 10′] | excellent inhibitory effects | strong inhibitory activities | 2.02 | 0.97 | 1.05 | 2 | 1 | 1 | strong inhibitory activities | 5 | 5 | 6 | 5.75 | 5.26 | 4.92 | 47 |  |  |  |  | 
3 | CCC(COc1ccc(Cl)cc1Cl)OS(=O)OCCF (stereo not shown) [Compound 19] | excellent inhibitory effects | strong inhibitory activities | 0.00 | 0.00 | 0.00 | 0 | 0 | 0 | strong inhibitory activities | 3 | 5 | 4 | 3.26 | 4.45 | 4.17 | 32 | 72.22 | 69.74 | 15 | 23 | Hatching rate (%) ([1]; 0.5 mg/L, Replicate 1): 34.69%; Hatching rate (%) ([1]; 0.5 mg/L, Replicate 2): 30.49%; Number of hatched larvae 7 days after insecticide delivery ([1]; 0.5 mg/L, Replicate 2): 57; Hatching rate (%) ([1]; 1 mg/L, Replicate 1): 0.00%; Hatching rate (%) ([1]; 1 mg/L, Replicate 2): 0.00%; Number of hatched larvae 7 days after insecticide delivery ([1]; 1 mg/L, Replicate 1): 71; Number of hatched larvae 7 days after insecticide delivery ([1]; 1 mg/L, Replicate 2): 65
4 | CCC(COS(=O)OCCF)Oc1ccc(Cl)cc1Cl (stereo not shown) [Compound 19′] | excellent inhibitory effects | strong inhibitory activities | 0.00 | 0.00 | 0.00 | 0 | 0 | 0 | strong inhibitory activities | 4 | 5 | 7 | 4.49 | 5.21 | 6.48 | 47 | 70.21 | 73.24 | 14 | 19 | Hatching rate (%) ([1]; 0.5 mg/L, Replicate 1): 34.72%; Hatching rate (%) ([1]; 0.5 mg/L, Replicate 2): 34.43%; Number of hatched larvae 7 days after insecticide delivery ([1]; 0.5 mg/L, Replicate 2): 40; Hatching rate (%) ([1]; 1 mg/L, Replicate 1): 1.89%; Hatching rate (%) ([1]; 1 mg/L, Replicate 2): 0.00%; Number of hatched larvae 7 days after insecticide delivery ([1]; 1 mg/L, Replicate 1): 52; Number of hatched larvae 7 days after insecticide delivery ([1]; 1 mg/L, Replicate 2): 63
5 | CC(C)(COc1ccc(Cl)cc1Cl)OS(=O)OCCF (stereo not shown) [Compound R-10] |  |  | 9.79 | 9.42 | 9.92 | 14 | 13 | 12 |  | 15 | 10 | 13 | 12.00 | 11.90 | 12.87 | 28 | 73.21 | 74.03 | 15 | 20 | Hatching rate (%) ([1]; 0.5 mg/L, Replicate 1): 42.67%; Hatching rate (%) ([1]; 0.5 mg/L, Replicate 2): 41.94%; Number of hatched larvae 7 days after insecticide delivery ([1]; 0.5 mg/L, Replicate 2): 36; Hatching rate (%) ([1]; 1 mg/L, Replicate 1): 8.11%; Hatching rate (%) ([1]; 1 mg/L, Replicate 2): 6.25%; Number of hatched larvae 7 days after insecticide delivery ([1]; 1 mg/L, Replicate 1): 68; Number of hatched larvae 7 days after insecticide delivery ([1]; 1 mg/L, Replicate 2): 60
6 | CC(C)(COc1ccc(Cl)cc1Cl)OS(=O)OCCF (stereo not shown) [Compound S-10] | excellent inhibitory effects | strong inhibitory activities | 0.00 | 0.00 | 0.00 | 0 | 0 | 0 | strong inhibitory activities | 0 | 0 | 0 | 0.00 | 0.00 | 0.00 | 62 | 39.51 | 41.79 | 49 | 39 | Hatching rate (%) ([1]; 0.5 mg/L, Replicate 1): 4.62%; Hatching rate (%) ([1]; 0.5 mg/L, Replicate 2): 3.39%; Number of hatched larvae 7 days after insecticide delivery ([1]; 0.5 mg/L, Replicate 2): 57; Hatching rate (%) ([1]; 1 mg/L, Replicate 1): 0.00%; Hatching rate (%) ([1]; 1 mg/L, Replicate 2): 0.00%; Number of hatched larvae 7 days after insecticide delivery ([1]; 1 mg/L, Replicate 1): 78; Number of hatched larvae 7 days after insecticide delivery ([1]; 1 mg/L, Replicate 2): 84
